Drawing on patent publication US20110201629A1, “CYCLOHEXYL AMIDE DERIVATIVES AS CRF RECEPTOR ANTAGONISTS” (priority 2010, published 2011), this text covers IC50 for 18 compounds.

Structures are written as SMILES.

One assay concerns the target T1, CRF-1 (UniProt P34998).
T1 sequence (P34998 1-415): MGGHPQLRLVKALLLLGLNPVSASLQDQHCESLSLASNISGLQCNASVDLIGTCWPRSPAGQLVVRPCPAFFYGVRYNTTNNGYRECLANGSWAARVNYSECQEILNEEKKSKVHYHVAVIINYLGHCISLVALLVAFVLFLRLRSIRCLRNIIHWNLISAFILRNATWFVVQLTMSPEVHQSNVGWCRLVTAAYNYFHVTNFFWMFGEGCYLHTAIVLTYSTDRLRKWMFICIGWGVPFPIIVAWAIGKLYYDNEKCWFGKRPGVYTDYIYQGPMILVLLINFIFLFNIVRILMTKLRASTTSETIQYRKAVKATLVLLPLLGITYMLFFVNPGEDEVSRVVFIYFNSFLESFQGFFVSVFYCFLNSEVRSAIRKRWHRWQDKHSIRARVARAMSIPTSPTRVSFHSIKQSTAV
Nature of the assay: CRF-1 receptor antagonism, HTRF cAMP assay in CHO cells. Format: cell-based, human. The conditions noted are these: Biological data Table 2; inhibition of CRF induced cAMP response in CHO cells, EC50 concentration of CRF. Here is the method: (§1) The CRF-1 and CRF-2 receptor antagonistic activity of the agents of the invention has been determined in vitro in the following assay:
(§2) Chinese hamster ovary (CHO) cells expressing either the human or rat recombinant CRF-1 or human CRF-2α (Chen et al, Proc Natl Acad Sci USA 90, 8967-8971, 1993; Liaw et al, Endocrinology 137, 72-77, 1996) are propagated in Dulbecco's modified Eagle medium supplemented with 10% foetal calf serum, non-essential amino acids, 100 U/ml penicillin, 100 mg/l streptomycin and 1 g/l geneticin. CHO cells expressing the rat CRF-2β receptor (Wu et al, Endocrinology 148, 1675-1687, 2007) are propagated in HAM's-F12 Glutamax supplemented with 10% foetal calf serum, 100 IU/ml penicillin, 100 mg/l streptomycin, 600 μg/ml hygromycin, 10 μg/ml blasticidin and induced with 1 μg/ml of tetracyclin for 24 hours prior to experimentation. For cyclic AMP determinations the Homogeneous Time-Resolved Fluoresce (HTRF) cAMP dynamic 2 kit (Cisbio International, France) was used as per manufacturers' instructions. CHO cells, previously cryopreserved at 3×10^6 viable cells per ml of cell recovery media (Cat no. 12648-010, Invitrogen), were thawed, centrifuged for 7 mins at 1200 rpm and resuspended in serum free media to give a concentration of 0.5×10^6 cells per/ml. Compounds of the invention, prepared in DMSO, and subsequently diluted 50 fold in assay buffer (1× Hanks balanced salt solution, 0.2% (w/v) bovine serum albumin, 1.7 mM isobutylmethylxanthine and 10 mM Hepes, pH7.4) were then added onto the 384 well low volume black assay plate (Corning Inc, US, Cat. 3676). 2000 cells/well were then added to the assay plate further diluting the compound 2 fold and then the plate was incubated for 15 mins at room temperature. Following incubation, buffer containing a 5 times final concentration of agonist, typically r/h CRF is added to the plate and incubated for 30 min at room temperature. Finally, d2 dye labeled cAMP and cryptate labeled anti-cAMP antibody, both made in lysis buffer, are added to the plate followed by a settling period of 1 hour at room temperature. During the settling period cAMP produced by the cells competes with the d2 labelled cAMP for the anti-cAMP cryptate. The plate is read on the Pherastar (BMG, Germany). Increasing levels of endogenous cAMP produced by cells can be followed by a decrease of FRET fluorescent signal and vice versa. Values represented by a change in arbitrary fluorescence units are converted into cAMP concentrations by use of a standard curve, the reagents for which are supplied with the kit. Antagonist dose response curves (1 nM-31.6 μM) are constructed and tested in the presence of an EC50 concentration of CRF relevant to the receptor (hCRF-1=3 nM, hCRF-2α=2 nM, rCRF-1=1 nM and rCRF-2β=0.1 nM). IC50 values of antagonists are calculated by fitting the percent inhibition of CRF induced cAMP response by increasing concentrations of the antagonists. The fit is performed using the nonlinear logistic function of the Activitybase software package v 5.4.5.27 (IDBS, UK).
On the technique in general: Time-resolved FRET reads energy transfer from a long-lived donor to a nearby acceptor.

For another assay, the target named is T2, CRF-2 (UniProt Q13324).
T2 sequence (Q13324 1-411): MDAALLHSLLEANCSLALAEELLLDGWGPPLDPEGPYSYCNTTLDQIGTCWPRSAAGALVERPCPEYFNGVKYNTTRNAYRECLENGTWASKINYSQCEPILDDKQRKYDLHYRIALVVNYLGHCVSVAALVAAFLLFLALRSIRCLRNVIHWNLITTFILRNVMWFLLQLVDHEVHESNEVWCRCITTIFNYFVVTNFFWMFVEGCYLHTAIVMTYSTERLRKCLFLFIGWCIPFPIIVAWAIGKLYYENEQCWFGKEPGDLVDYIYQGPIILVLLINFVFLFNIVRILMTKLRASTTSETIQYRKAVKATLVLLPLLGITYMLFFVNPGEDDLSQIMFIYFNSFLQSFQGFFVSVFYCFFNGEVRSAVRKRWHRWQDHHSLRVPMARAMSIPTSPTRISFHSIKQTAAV
The assay is described as follows: CRF-2 receptor antagonism, HTRF cAMP assay in CHO cells. Format: cell-based, human. The settings on record: Biological data Table 2; inhibition of CRF induced cAMP response in CHO cells, EC50 concentration of CRF. The method, then:
as §1, §2

For the compound `Cc1ncc(Cl)cc1C(=O)N[C@H]1CC[C@H](CN2C(=O)C(C)(F)c3ccc(Cl)cc32)CC1` (single isomer, unassigned) [Example 2.33, Trans-5-Chloro-N-[4-(-6-chloro-3-fluoro-3-methyl-2-oxo-2,3-dihydro-indol-1-ylmethyl)-cyclohexyl]-2-methyl-nicotinamide], the IC50 (usually the concentration that inhibits the measured activity by half) against CRF-1 is 44 nM; on CRF-2, 876 nM.
In the case of `Cc1cc2c(cc1C)C(C)(F)C(=O)N2C[C@H]1CC[C@H](NC(=O)c2cc(Cl)cnc2C)CC1` (single isomer, unassigned; enantiomer 1) [Example 2.54, Enantiomer 1 of Trans-5-Chloro-N-[4-(3-fluoro-3,5,6-trimethyl-2-oxo-2,3-dihydro-indol-1-ylmethyl)-cyclohexyl]-2-methyl-nicotinamide], the IC50 against CRF-1 worked out at 59 nM; on CRF-2, 4760 nM.
As for `Cc1cc2c(cc1C)C(C)(F)C(=O)N2C[C@H]1CC[C@H](NC(=O)c2cc(Cl)cnc2C)CC1` (single isomer, unassigned; enantiomer 2) [Example 2.55, Enantiomer 2 of Trans-5-Chloro-N-[4-(3-fluoro-3,5,6-trimethyl-2-oxo-2,3-dihydro-indol-1-ylmethyl)-cyclohexyl]-2-methyl-nicotinamide], the figures for the IC50 against CRF-1 and at CRF-2 were 60 nM and 4530 nM, respectively.
For `Cc1ncc(Cl)cc1C(=O)N[C@H]1CC[C@H](CN2C(=O)C(C)(C)c3ccccc32)CC1` [Example 1.3, Trans-5-chloro-N-[4-(3,3-dimethyl-2-oxo-2,3-dihydro-indol-1-ylmethyl)-cyclohexyl]-2-methyl-icotinamide] the same measures were 48 nM and 3800 nM.
For `Cc1ncc(Cl)cc1C(=O)N[C@H]1CC[C@H](CN2C(=O)C3(CC3)c3cc(F)ccc32)CC1` [Example 2.6, Trans-5-chloro-N-[-4-((5′-fluoro-2′-oxospiro[cyclopropane-1,3′-indoline]-1′-yl)methyl)cyclohexyl]-2-methyl nicotinamide], the values for the IC50 at CRF-1 and against CRF-2 were 12 nM and 811 nM, respectively.
For `Cc1ncc(Cl)cc1C(=O)N[C@H]1CC[C@H](CN2C(=O)C(C)(C)c3cccc(Cl)c32)CC1` [Example 2.15, Trans-5-Chloro-N-[4-(7-chloro-3,3-dimethyl-2-oxo-2,3-dihydro-indol-1-ylmethyl)-cyclohexyl]-2-methyl-nicotinamide] the same measures were 17 nM and 936 nM.
In the same order, the values of `COc1cccc2c1N(C[C@H]1CC[C@H](NC(=O)c3cc(C(F)(F)F)ccc3Cl)CC1)C(=O)C2(C)C` [Example 2.18, Trans-2-Chloro-N-[4-(7-methoxy-3,3-dimethyl-2-oxo-2,3-dihydro-indol-1-ylmethyl)-cyclohexyl]-5-trifluoromethyl-benzamide] are 50 nM and 1680 nM.
On to `Cc1ncc(Cl)cc1C(=O)N[C@H]1CC[C@H](CN2C(=O)[C@@](C)(F)c3ccccc32)CC1` [Example 2.20, Trans-5-Chloro-N-[4-((S)-3-fluoro-3-methyl-2-oxo-2,3-dihydro-indol-1-ylmethyl)-cyclohexyl]-2-methyl-nicotinamide], for which the IC50 against CRF-1 stood at 62 nM; against CRF-2, 4590 nM.
`Cc1cccc2c1N(C[C@H]1CC[C@H](NC(=O)c3cc(C(F)(F)F)ccc3Cl)CC1)C(=O)C2(C)C` [Example 2.23, Trans-2-Chloro-5-trifluoromethyl-N-[4-(3,3,7-trimethyl-2-oxo-2,3-dihydro-indol-1-ylmethyl)-cyclohexyl]-benzamide]: the IC50 at CRF-1 was 57 nM; against CRF-2 it was 2140 nM.
As for `Cc1ncc(Cl)cc1C(=O)N[C@H]1CC[C@H](CN2C(=O)C(F)(F)c3ccc(Cl)cc32)CC1` [Example 2.26, Trans-5-Chloro-N-[4-(6-chloro-3,3-difluoro-2-oxo-2,3-dihydro-indol-1-ylmethyl)-cyclohexyl]-2-methyl-nicotinamide], the 50% inhibitory concentration (IC50) against CRF-1 worked out at 157 nM; against CRF-2, 3120 nM.
As to `Cc1cccc2c1C(C)(C)C(=O)N2C[C@H]1CC[C@H](NC(=O)c2cc(Cl)cnc2C)CC1` [Example 2.27, Trans-5-Chloro-2-methyl-N-[4-(3,3,4-trimethyl-2-oxo-2,3-dihydro-indol-1-ylmethyl)-cyclohexyl]-nicotinamide], the IC50 at CRF-1 amounted to 157 nM; at CRF-2 it was 4810 nM.
In the same order, the values of `COc1ccc2c(c1)N(C[C@H]1CC[C@H](NC(=O)c3cc(Cl)cnc3C)CC1)C(=O)C2(C)C` [Example 2.28, Trans-5-Chloro-N-[4-(6-methoxy-3,3-dimethyl-2-oxo-2,3-dihydro-indol-1-ylmethyl)-cyclohexyl]-2-methyl-nicotinamide] are 38 nM and 3050 nM.
For `Cc1ncc(Cl)cc1C(=O)N[C@H]1CC[C@H](CN2C(=O)C(C)(C)c3ccc(Cl)cc32)CC1` [Example 2.29, Trans-5-Chloro-N-[4-(6-chloro-3,3-dimethyl-2-oxo-2,3-dihydro-indol-1-ylmethyl)-cyclohexyl]-2-methyl-nicotinamide] the same measures were 14 nM and 4620 nM.
In the same order, the values of `CCn1c(=O)n(C[C@H]2CC[C@H](NC(=O)c3cc(Cl)cnc3C)CC2)c2ccccc21` [Example 2.46, Trans-5-Chloro-N-[4-(3-ethyl-2-oxo-2,3-dihydro-benzoimidazol-1-ylmethyl)-cyclohexyl]-2-methyl-nicotinamide] are 44 nM and 256 nM.
As for `Cc1ncc(Cl)cc1C(=O)N[C@H]1CC[C@H](Cn2c(=O)n(CC(C)C)c3ccccc32)CC1` [Example 2.47, Trans-5-Chloro-N-[4-(3-isobutyl-2-oxo-2,3-dihydro-benzoimidazol-1-ylmethyl)-cyclohexyl]-2-methyl-nicotinamide], the IC50 came to 18 nM on CRF-1 and 296 nM on CRF-2.
In the same order, the values of `Cc1ncc(Cl)cc1C(=O)N[C@H]1CC[C@H](Cn2c(=O)n(C)c3ccccc32)CC1` [Example 2.50, Trans-5-Chloro-2-methyl-N-[4-(3-methyl-2-oxo-2,3-dihydro-benzoimidazol-1-ylmethyl)-cyclohexyl]-nicotinamide] are 86 nM and 3560 nM.
In the same order, the values of `O=C(N[C@H]1CC[C@H](CN2C(=O)Cc3ccc(F)cc32)CC1)c1cc(C(F)(F)F)ccc1Cl` [Example 3.2, Trans-2-Chloro-N-[4-(6-fluoro-2-oxo-2,3-dihydro-indol-1-ylmethyl)-cyclohexyl]-5-trifluoromethyl-bcnzamide] are 47 nM and 3870 nM.
In the same order, the values of `CCn1c(=O)n(C[C@H]2CC[C@H](NC(=O)c3cc(C(F)(F)F)ccc3Cl)CC2)c2ccccc21` [Example 3.4, Trans-2-Chloro-N-[4-(3-ethyl-2-oxo-2,3-dihydro-bcnzoimidazol-1-ylmethyl)-cyclohexyl]-5-trifluoromethyl-benzamide] are 18 nM and 1950 nM.
